Assay results from patent publication US10383875B2, “Pharmaceutical formulations of xanthine or xanthine derivatives, and their use” (Imprimis Pharmaceuticals, Inc., priority 2013, dated 2019).

What was measured:
[1] = test system: erectile dysfunction; experiment: Intracavernosal injection in a patient with erectile dysfunction (Example 4); assay type: in vivo, human; conditions: person, along with phentolamine, alprostadil and papaverine
Method: A new injection was reformulated to contain the 3 vasoactive drugs mentioned above along with the addition of pentoxifylline, and was administered to the patient.

[2] = test system: Peyronie's plaque; experiment: Injection of pentoxifylline directly into the Peyronie's plaque of patients (Examples 5 and 6); assay type: in vivo, human; conditions: Peyronie's disease
Method: In Examples 5 and 6, patients suffering from Peyronie's disease were treated. A therapy cycle included injections of sterile pentoxifylline. More specifically, 6 separate injections were to be conducted over every two weeks. The dosage was 5 mg of pentoxifylline in a 1 ml volume. Single use vials were dispensed. The injections were made using a 21 gauge cannula directly into the Peyronie's plaque. A nerve block was done around the injection site to lessen the pain. Manual manipulation and traction techniques were employed to massage the area of the injection. Patients returned after two weeks for another injection and manual manipulation session.
Baseline measurements were collected before any treatment occurred to characterize the extent of the patient's disease. The degree of curvature was noted, as well as any pain/discomfort that the patient presently had and current sexual ability. Psychosocial effects related to the patient's disease were observed as well.
In Example 5, the patient suffering from Peyronie's disease was brought to the procedure room, prepared and draped in the usual sterile fashion.
A total of 1 mL of 1% lidocaine was used to perform a local block. Once the patient was anesthetized, the plaque was isolated between two fingers and 1 mL of 5 mg pentoxyfilline was injected into the plaque in a fan-like fashion. […]

[3] = test system: symptoms of PD, such as erectile dysfunction; experiment: Intracavernosal injection of a composition comprising pentoxifylline (general finding); assay type: in vivo
Excerpt: This disclosure relates to the finding that local administration of a xanthine derivative, e.g., pentoxifylline, has produced unexpected improvement in treating a fibrotic disease.

[4] = test system: Peyronie's Disease plaques; conditions: oral administration; cited from earlier work

**Q.** With `CC(=O)CCCCn1c(=O)c2c(ncn2C)n(C)c1=O` [pentoxifylline, 1-(5-oxohexyl)-3,7-dimethylxanthine] as the molecule, how does the “improvement of erectile dysfunction” value ([1]; pentoxifylline 6 mg dose) read?
**A.** more remarkable

**Q.** What about the “improvement of erectile dysfunction” value ([1]; pentoxifylline dose of 4 mg per injection) of the same molecule?
**A.** remarkable improvement

**Q.** What about the “tolerability of the procedure” value ([2]; Example 5 patient, 1 mL of 5 mg injected into the plaque after 1% lidocaine local block) of the same molecule?
**A.** tolerated the procedure well

**Q.** And the “tolerability of the procedure” value ([2]; Example 6 patient, treated in the same fashion as Example 5 (5 mg in 1 ml into the plaque))?
**A.** tolerated the procedure well

**Q.** What about the “improvement to symptoms of PD, such as erectile dysfunction” value [3] of the same molecule?
**A.** remarkable improvement

**Q.** And the side effects [3]?
**A.** fewer side effects

**Q.** What about the “improvement of Peyronie's disease” value [4] of the same molecule?
**A.** moderate to minimal improvement
